Legend:
HaCaT cells [1] = test: MTT assay, growth of human immortalized keratinocytes; format: cell-based
Method: MTT assay: This calorimetric assay detects the formation of formazan which is proportional to the number of cells present. Tissue culture medium containing drugs was removed and 200 μl of DME containing 2 mg/ml MTT ((3-4, 5-dimethyl thiazol-2yl) 2,5-diphenyltetrazolium bromide) was added to each well. 96-well plates were incubated at 37 ° C., and 10% CO2 for 30 minutes. Medium containing MTT was then removed and the cells were washed once with PBS. Following removal of the PBS, 200 μL DMSO was added to each well and plates were placed on a rotating platform shaker for 5 minutes. Results were obtained by reading the absorbance at a wavelength of 550 nm using a spectrophotometer. Results are expressed as percentages setting the control as 100%.
FIG. 1 graphically depicts the results of growth assays performed on human immortalized keratinocytes (HaCaT cells), treated for three days with the indicated compounds. Drugs were added on the same day of plating (day 0). The MTT assay (to measure cell proliferation) was carried out on day 3. Various combinations of the drugs were used in the growth assays.
Cells were plated in wells on day 0. […] The MTT assay was carried out on day 3. Various combinations of the drugs were also used in the growth assays. […] Thus, the combinatorial activity of these two drugs must be explained via synergistic activity of this treatment.
Drugs were added on the same day of plating (day 0). The MTT assay (to measure cell proliferation) was carried out on the third day. […] Thus, this combinatorial activity of these two drugs must be explained via synergistic activity of this treatment.

inflammatory cytokines [2] = test: Semiquantitative RT-PCR of cytokine mRNA, PMA/Ion stimulated peripheral blood lymphocytes; format: cell-based, human; details: for cytokine expression (mRNA): PMA/Ion stimulation, FIG. 13 A and B
Method: (§1) Monocyte and macrophage depleted peripheral blood mononuclear cells were obtained from consenting adults via separation using Ficoll-Hypaque. The peripheral blood mononuclear cells (PBMC) fraction was washed and seeded in 9 cm petri dishes. After an incubation of 2 hours at 37° C. to remove most of the monocytes, macrophages, and B-cells, the non-adherent cells were collected and cultured in 175 cm^2 flasks for 2 days. Cells were harvested and adjusted to 3 million cells per ml. Aliquots of 500 μl were transferred to each well of 24-well flat bottom plates. Peripheral blood lymphocytes (PBL's) were treated with various concentrations of HDAC inhibitors as indicated. After a 2 hours incubation time at 37° C. cells were stimulated with phorbol 12-myristate 13-acetate (PMA)/ionomycin (Ion) or activated via T cell receptor (TCR/CD3) complex with 10 μg/ml anti-CD3 mAb (OKT3) and 2.5 μg/ml anti-CD28 mAb. After 24 hours at 37° C. the supernatant was removed and frozen for cytokine assays. Cell pellets were lysed and total RNA was isolated using the RNeasy mini kit from Qiagen.
(§2) One microgram of total RNA was transcribed to cDNA by standard methods using reverse transcriptase and an oligo-dT primer (Invitrogen). For semiquantitative PCR, 2 μl of cDNA was amplified by PCR using specific primers. Primers for PCR were synthesized by MWG and are as follows: […]

IL-2 and TNF-α = IL-2 and TNF-α ELISA, supernatants of stimulated peripheral blood lymphocytes; format: cell-based, human; details: PBLs, FIG. 15; for concentration at which inhibition of IL-2 and TNF-α expression was maximal: CD3/CD28; for IL-2 secretion, dose-response / TNF-α secretion, dose-response: increasing concentrations two hours, CD3 and CD28 mAbs 24 hours
Method: as §1
To perform ELISAs, supernatants of treated and untreated PBL's were collected and IL-2 as well as TNF-α were measured using the Duo Set ELISA Development System (R&D Systems) as described by the manufacturer.

[3] = tested on: stage III/IV non-small cell lung cancer; details: monotherapy, phase II (Keer et al., 2002); cited from earlier work
inflammatory cytokines [4] = test: Semiquantitative RT-PCR of cytokine mRNA, LPS stimulated keratinocytes; format: cell-based, human; details: HaCaT, 200 nM TSA or 5 mM VPA 4 hours, then LPS 100 ng/ml 24 hours, FIG. 12A
Method: Human immortalized keratinocytes (HaCaT cells) were seeded at a density of 2.5 million cells per ml into 75 cm^2 flasks. […] After 24 hours at 37° C. cells were lysed and total RNA was isolated using the RNeasy mini kit from Qiagen.
as §2

PPARδ = details: cited from earlier work
F9 cells = details: cited from earlier work
HaCaT cells [5] = test: Apoptosis assay, flow cytometry of Sub-G1 DNA containing cells; format: cell-based, human; details: drugs day 1, assay day 2, combinations VPA 1 mM + Tazarotene 1 or 2 μM, FIG. 5
Method: Apoptosis assays: Apoptosis was measured by a Beckton Dickinson FACScalibur flow cytometer by analysing the percentage of Sub-G1 DNA containing cells. 10000 events were recorded for each sample. The amplification scale was linear for all parameters. Photomultiplier tension was set as to place the peak DNA content corresponding cells in G0/G1 at channel 300 in the FL2-H vs SCC—H graphs. Cells showing a less than peak DNA content (hypodiploid cells) and high SSC—H (granular high condensed cells) were regarded as apoptotic. The experiments were repeated three times in duplicate. Error bars represent 1 standard deviation.
Cells were plated in 35 mm diameter wells on day 0. Drugs were added on day 1. The apoptosis assay was carried out on day 2. […] Thus, the combinatorial activity of these two drugs must be explained via synergistic activity of this treatment.

Basal Cell Carcinoma [6] = test: Topical treatment of BCC patients with Tazarotene and VPA; format: in vivo, human; details: 4 lesions pre-treated with Tazarotene alone for at least 16-20 weeks
Method: 10 lesions were treated: 8 Superficial BCCs and 2 pigmented BCC. […] Lesions were evaluated clinically and photographed every two weeks.

Basal Cell Carcinoma [7] = details: Tazarotene used alone; cited from earlier work
T-cell lymphomas = details: phase II trial (Piekarz et al., 2001); cited from earlier work
[8] = tested on: acute promyelocytic leukemia; details: one PML-RAR patient with multiple relapses after retinoic acid (Warrell et al., 1998); cited from earlier work
[9] = vs untreated stimulated control
[10] = PBLs preincubated 2 hours, PMA/Ion 24 hours, FIGS. 12B, 13

## O=c1[nH]cc(F)c(=O)[nH]1 [5-FU, 5-Fluorouracil]
HaCaT cells [1]; MTT on the third day, 5 μM or 10 μM 5-FU and 1 mM VPA, FIG. 3
  cell growth (MTT assay): inhibited growth

## O=C(CCC1CCCC1)NO [G2M-701]
Inflammatory cytokines [2]
  cytokine expression (mRNA): can modulate cytokine expression
IL-2 and TNF-α
  concentration at which inhibition of IL-2 and TNF-α expression was maximal: 6 µM
  IL-2 secretion, dose-response: dose-dependent inhibition
  TNF-α secretion, dose-response: dose-dependent inhibition

## O=C(CCC1CCCCC1)NO [G2M-702]
Inflammatory cytokines [2]
  cytokine expression (mRNA): can modulate cytokine expression
IL-2 and TNF-α
  concentration at which inhibition of IL-2 and TNF-α expression was maximal: 3 µM
  IL-2 secretion, dose-response: dose-dependent inhibition
  TNF-α secretion, dose-response: dose-dependent inhibition

## O=C(/C=C/C1CCCCC1)NO [G2M-707]
Inflammatory cytokines [2]
  cytokine expression (mRNA): can modulate cytokine expression
IL-2 and TNF-α
  concentration at which inhibition of IL-2 and TNF-α expression was maximal: 1 µM
  IL-2 secretion, dose-response: dose-dependent inhibition
  TNF-α secretion, dose-response: dose-dependent inhibition

## CCCC(=O)OCOC(=O)C(C)(C)C [Pivanex, Pivaloyloxymethyl butyrate]
[3]
  clinical activity: demonstrating activity

## O=C(CCCCCCC(=O)Nc1ccccc1)NO [SAHA, suberoylanilide hydroxamic acid]
Inflammatory cytokines [2]
  cytokine expression (mRNA): can modulate cytokine expression

## CC(/C=C/C(=O)NO)=C\[C@@H](C)C(=O)c1ccc(N(C)C)cc1 [TSA, trichostatin A]
Inflammatory cytokines [4]
  IFN-γ mRNA transcript: virtually unaffected
Inflammatory cytokines [4]; [9]
  IL-6 mRNA level: significant decrease
  TNF-α mRNA level: significant decrease
Inflammatory cytokines [2]; [10]
  IL-4 mRNA transcripts: significantly reduced
  IL-6 mRNA transcripts: only moderate effects
PPARδ
  PPARδ activation: activates
F9 cells
  F9 cell differentiation: induces the same type of F9 cell differentiation as VPA

## CCOC(=O)c1ccc(C#Cc2ccc3c(c2)C(C)(C)CCS3)nc1 [Tazarotene]
HaCaT cells [1]; treated three days, MTT on day 3, combinations VPA 1 mM + Tazarotene 1 or 2 μM, FIG. 1
  cell growth (MTT assay): inhibited cell growth
HaCaT cells [5]
  apoptosis (Sub-G1 DNA containing cells): induces apoptosis
Basal Cell Carcinoma [6]
  tumor diameter under Tazarotene alone: no reduction of tumor diameter
Basal Cell Carcinoma [7]
  share of BCC's in which regression is induced: ~50%
  side effects (such as pain and itching): several unwanted side effects
  time to regression: 12-24 weeks

## C/C=C1\NC(=O)[C@H]2CSSCC/C=C/[C@H](CC(=O)N[C@H](C(C)C)C(=O)N2)OC(=O)[C@H](C(C)C)NC1=O [depsipeptide]
T-cell lymphomas
  clinical outcome: used successfully

## phenylbutyrate
[8]
  clinical outcome of leukemia: complete remission of the leukemia
